Reference: PubChem BioAssay AID308 (DTP/NCI, 2004)
“And” between values parts separate entries of the source, which are not always exact repeats. Equal entries are not always repeated. Toxic doses and inconclusive results are not listed. The calls were made as follows: active = survival T/C of 150% or more; inactive = T/C below 125% in these data.

System: BDF1 mice, L1210 6-MP/6-TG resistant leukemia ip, survival T/C
Test: NCI In Vivo Anticancer Drug Screen. Data for tumor model L1210 Leukemia resistant to 6-MP and 6-Thioguanine; NSC 755, NSC 752 (intraperitoneal) in B6D2F1 (BDF1) mice
Conditions: endpoint: mean survival time, higher = longer survival
Experimental: The antitumor activity of compounds was measured in mice bearing transplantable tumors. Survival or tumor size were measured and the results are expressed as the measurement made in the treated group (T) divided by the measurement made in the vehicle treated control group (C). The tumor model used in this assay is L1210 Leukemia resistant to 6-MP and 6-Thioguanine; NSC 755, NSC 752 (intraperitoneal) in B6D2F1 (BDF1) mice

[1] = dose: 12.5 mg/kg/injection, schedule: Q01DX015 (ip), vehicle: carboxymethylcellulose (CMC)
[2] = dose: 10.0 mg/kg/injection, schedule: Q01DX Z (ip), vehicle: carboxymethylcellulose (CMC)
[3] = dose: 0.75 mg/kg/injection, schedule: Q01DX Z (ip), vehicle: carboxymethylcellulose (CMC)
[4] = dose: 5.0 mg/kg/injection, schedule: Q01DX Z (ip), vehicle: carboxymethylcellulose (CMC)
[5] = dose: 25.0 mg/kg/injection, schedule: Q01DX Z (ip), vehicle: carboxymethylcellulose (CMC)
[6] = dose: 37.5 mg/kg/injection, schedule: Q01DX Z (ip), vehicle: carboxymethylcellulose (CMC)
[7] = dose: 50.0 mg/kg/injection, schedule: Q01DX009 (ip), vehicle: other

Measured: T/C

C(=C\c1ccccc1)/CSc1ncnc2nc[nH]c12
inactive: dose: 62.0 mg/kg/injection, schedule: Q01DX015 (ip), vehicle: carboxymethylcellulose (CMC) 98 % of control | dose: 125.0 mg/kg/injection, schedule: Q01DX015 (ip), vehicle: carboxymethylcellulose (CMC) 96 % of control | dose: 250.0 mg/kg/injection, schedule: Q01DX015 (ip), vehicle: carboxymethylcellulose (CMC) 91 % of control | dose: 500.0 mg/kg/injection, schedule: Q01DX015 (ip), vehicle: carboxymethylcellulose (CMC) 90 % of control | dose: 1000.0 mg/kg/injection, schedule: Q01DX015 (ip), vehicle: carboxymethylcellulose (CMC) 90 % of control

O=C(O)c1cc[c]([Hg][S]c2ncnc3nc[nH]c23)cc1
inactive: [1] 95 % of control | dose: 25.0 mg/kg/injection, schedule: Q01DX015 (ip), vehicle: carboxymethylcellulose (CMC) 87 % of control

Nc1nc(=S)c2ncn(C3OC(COC(=O)c4ccc(Cl)cc4)C(OC(=O)c4ccc(Cl)cc4)C3OC(=O)c3ccc(Cl)cc3)c2[nH]1 (stereo unspecified)
inactive: dose: 6.25 mg/kg/injection, schedule: Q01DX015 (ip), vehicle: carboxymethylcellulose (CMC) 88 % of control | [1] 87 % of control | dose: 100.0 mg/kg/injection, schedule: Q01DX015 (ip), vehicle: carboxymethylcellulose (CMC) 86 % of control

COc1cc([C@@H]2c3cc4c(cc3[C@H](O)[C@H]3COC(=O)[C@@H]23)OCO4)cc(OC)c1OC
inactive: [2] 124 % of control | dose: 40.0 mg/kg/injection, schedule: Q01DX Z (ip), vehicle: carboxymethylcellulose (CMC) 101 % of control

O=C(Nc1ccc(C2=NCCCN2)cc1)c1ccc(NC(=O)c2ccc(C3=NCCCN3)cc2)cc1
active: dose: 3.0 mg/kg/injection, schedule: Q01DX Z (ip), vehicle: carboxymethylcellulose (CMC) 272 % of control | dose: 4.0 mg/kg/injection, schedule: Q01DX Z (ip), vehicle: carboxymethylcellulose (CMC) 235 % of control | dose: 6.0 mg/kg/injection, schedule: Q01DX Z (ip), vehicle: carboxymethylcellulose (CMC) 185 % of control
inactive: [3] 113 % of control | dose: 1.5 mg/kg/injection, schedule: Q01DX Z (ip), vehicle: carboxymethylcellulose (CMC) 116 % of control | dose: 16.0 mg/kg/injection, schedule: Q01DX Z (ip), vehicle: carboxymethylcellulose (CMC) 106 % of control

Nc1nc(SCc2ccccc2)c2[nH]cnc2n1
inactive: [4] 88 % of control | [2] 91 % of control | [5] 86 % of control | [6] 95 % of control

Nc1nc(F)nc2c1ncn2C1OC(CO)C(O)C1O (stereo unspecified)
inactive: dose: 0.06 mg/kg/injection, schedule: Q01DX Z (ip), vehicle: saline 109 % of control | dose: 0.12 mg/kg/injection, schedule: Q01DX Z (ip), vehicle: saline 104 % of control | dose: 0.25 mg/kg/injection, schedule: Q01DX Z (ip), vehicle: saline 106 % of control | dose: 0.5 mg/kg/injection, schedule: Q01DX Z (ip), vehicle: saline 101 % of control | dose: 0.75 mg/kg/injection, schedule: Q01DX Z (ip), vehicle: saline 119 % of control | dose: 1.5 mg/kg/injection, schedule: Q01DX Z (ip), vehicle: saline 107 % of control | dose: 3.0 mg/kg/injection, schedule: Q01DX Z (ip), vehicle: saline 115 % of control | dose: 6.0 mg/kg/injection, schedule: Q01DX Z (ip), vehicle: saline 90 % of control

CN(N=O)C(=O)NCCSc1ncnc2nc[nH]c12
inactive: dose: 88.0 mg/kg/injection, schedule: Q01DX015 (ip), vehicle: other 104 % of control | dose: 132.0 mg/kg/injection, schedule: Q01DX015 (ip), vehicle: other 108 % of control | dose: 200.0 mg/kg/injection, schedule: Q01DX015 (ip), vehicle: other 108 % of control | dose: 300.0 mg/kg/injection, schedule: Q01DX015 (ip), vehicle: other 102 % of control

CSc1ncnc2c1ncn2CO
inactive: [7] 104 % of control | dose: 100.0 mg/kg/injection, schedule: Q01DX009 (ip), vehicle: other 110 % of control

CC(CCC(C)OS(C)(=O)=O)OS(C)(=O)=O (stereo unspecified)
inactive: [5] 112 % of control | [6] 116 % of control | dose: 50.0 mg/kg/injection, schedule: Q01DX Z (ip), vehicle: carboxymethylcellulose (CMC) 118 % of control | dose: 75.0 mg/kg/injection, schedule: Q01DX Z (ip), vehicle: carboxymethylcellulose (CMC) 98 % of control

NC(Cc1ccc(N(CCCl)CCCl)cc1)C(=O)O (stereo unspecified)
active: dose: 0.5 mg/kg/injection, schedule: Q01DX Z (ip), vehicle: carboxymethylcellulose (CMC) 163 % of control | [3] 155 % of control | dose: 1.0 mg/kg/injection, schedule: Q01DX Z (ip), vehicle: carboxymethylcellulose (CMC) 188 % of control | dose: 2.5 mg/kg/injection, schedule: Q01DX Z (ip), vehicle: carboxymethylcellulose (CMC) 195 % of control | dose: 3.75 mg/kg/injection, schedule: Q01DX Z (ip), vehicle: carboxymethylcellulose (CMC) 195 % of control | [4] 155 % of control
inactive: dose: 7.5 mg/kg/injection, schedule: Q01DX Z (ip), vehicle: carboxymethylcellulose (CMC) 119 % of control

CC[C@]1(O)C[C@H]2CN(CCc3c([nH]c4ccccc34)[C@@](C(=O)OC)(c3cc4c(cc3OC)N(C=O)[C@H]3[C@@](O)(C(=O)OC)[C@H](OC(C)=O)[C@]5(CC)C=CCN6CC[C@]43[C@@H]65)C2)C1
inactive: dose: 0.09 mg/kg/injection, schedule: Q01DX015 (ip), vehicle: carboxymethylcellulose (CMC) 91 % of control and 110 % of control | dose: 0.13 mg/kg/injection, schedule: Q01DX015 (ip), vehicle: carboxymethylcellulose (CMC) 114 % of control and 98 % of control | dose: 0.2 mg/kg/injection, schedule: Q01DX015 (ip), vehicle: carboxymethylcellulose (CMC) 94 % of control and 106 % of control | dose: 0.3 mg/kg/injection, schedule: Q01DX015 (ip), vehicle: carboxymethylcellulose (CMC) 90 % of control and 92 % of control | dose: 0.45 mg/kg/injection, schedule: Q01DX015 (ip), vehicle: carboxymethylcellulose (CMC) 93 % of control

CN(C)c1nc(N(C)C)nc(N(C)C)n1
inactive: dose: 4.3 mg/kg/injection, schedule: Q01DX Z (ip), vehicle: other 101 % of control | dose: 8.7 mg/kg/injection, schedule: Q01DX Z (ip), vehicle: other 111 % of control | dose: 17.5 mg/kg/injection, schedule: Q01DX Z (ip), vehicle: other 109 % of control | dose: 35.0 mg/kg/injection, schedule: Q01DX Z (ip), vehicle: other 111 % of control | dose: 50.0 mg/kg/injection, schedule: Q01DX Z (ip), vehicle: other 110 % of control | dose: 100.0 mg/kg/injection, schedule: Q01DX Z (ip), vehicle: other 98 % of control

c1nc(SC2CCCC2)c2[nH]cnc2n1
inactive: dose: 80.0 mg/kg/injection, schedule: Q01DX Z (ip), vehicle: carboxymethylcellulose (CMC) 96 % of control | dose: 160.0 mg/kg/injection, schedule: Q01DX Z (ip), vehicle: carboxymethylcellulose (CMC) 110 % of control | dose: 320.0 mg/kg/injection, schedule: Q01DX Z (ip), vehicle: carboxymethylcellulose (CMC) 89 % of control

CC(=O)N(C)C
inactive: dose: 7.5 mg/kg/injection, schedule: Q01DX Z (ip), vehicle: saline 115 % of control | dose: 15.0 mg/kg/injection, schedule: Q01DX Z (ip), vehicle: saline 110 % of control | dose: 30.0 mg/kg/injection, schedule: Q01DX Z (ip), vehicle: saline 107 % of control | dose: 62.5 mg/kg/injection, schedule: Q01DX Z (ip), vehicle: saline 110 % of control | dose: 125.0 mg/kg/injection, schedule: Q01DX Z (ip), vehicle: saline 114 % of control | dose: 250.0 mg/kg/injection, schedule: Q01DX Z (ip), vehicle: saline 109 % of control | dose: 500.0 mg/kg/injection, schedule: Q01DX Z (ip), vehicle: saline 120 % of control

S=c1nc[nH]c2c1ncn2CN1CCCCC1
inactive: [7] 94 % of control

CN(Cc1cnc2nc(N)nc(N)c2n1)c1ccc(C(=O)N[C@@H](CCC(=O)O)C(=O)O)cc1
active: dose: 0.6 mg/kg/injection, schedule: Q02DX010 (ip), vehicle: carboxymethylcellulose (CMC) 172 % of control | dose: 0.9 mg/kg/injection, schedule: Q02DX010 (ip), vehicle: carboxymethylcellulose (CMC) 163 % of control | dose: 1.3 mg/kg/injection, schedule: Q02DX010 (ip), vehicle: carboxymethylcellulose (CMC) 220 % of control | dose: 2.0 mg/kg/injection, schedule: Q02DX010 (ip), vehicle: carboxymethylcellulose (CMC) 261 % of control | dose: 3.0 mg/kg/injection, schedule: Q02DX010 (ip), vehicle: carboxymethylcellulose (CMC) 282 % of control | dose: 4.5 mg/kg/injection, schedule: Q02DX010 (ip), vehicle: carboxymethylcellulose (CMC) 294 % of control | dose: 6.75 mg/kg/injection, schedule: Q02DX010 (ip), vehicle: carboxymethylcellulose (CMC) 290 % of control
